Laboratory results reported in patent publication US20080207617A1, “Quinoline Derivatives and Quinazoline Derivatives Inhibiting Autophosphrylation of Flt3 and Medicinal Compositions Containing the Same” (KIRIN BEER KABUSHIKI KAISHA, priority 2002, published 2008).

Legend:
MOLM13 [1] = test: Cell growth inhibitory activity using MTT method (MOLM13); assay type: cell-based, human; details: Homo sapiens, MOLM-13, 72 h, MOLM13 cells
Experimental: Pharmacological Test Example 3
Measurement of Cell Growth Inhibitory Activity Using MTT Method
Human leukemia cell line MOLM13 (subdivided from Hayashibara Biochemical Laboratories, Inc.) was cultured in an RPMI medium containing 10% fetal calf serum (purchased from Asahi Techno Glass Corporation) within a 5% carbon dioxide incubator until the cell density reached 50 to 90% of the maximum cell density. These cells were seeded into wells, containing an RPMI medium containing 10% fetal calf serum, in a 96-well flat bottom plate in an amount of […] per well. The amount of the solution of the medium in each well was brought to 100 μl, and a test compound was added thereto to 500 ng, 100 ng, 20 ng, and 4 ng per ml. After culture within an incubator for 72 hr, 10 μl of a 5 mg/ml MTT (3-(4,5-dimethylthiazol-2-yl)-2,5-diphenyl tetrazolium bromide) solution (purchased from SIGMA) was added to the medium, and a reaction was allowed to proceed for 4 hr. Thereafter, 100 μl of a 0.04 N hydrochloric acid-isopropanol solution was added to completely dissolve the resultant MTT formazan crystal. After the dissolution, absorbance at 550 nm was measured using 620 nm as a reference wavelength with a microplate reader (DIGISCAN) (It is regarded that, in the MTT method, the viable cell count is reflected, and linearity is observed in a cell count per well range of 5×10^5 to 2×10^2 cells). After 72 hr, the absorbance of only the medium free from cells was subtracted from the absorbance of the well without the addition of the test compound to determine a value which was presumed to be 100%. On the other hand, the absorbance with the addition of the compound was expressed in terms of % growth.

MV4-11 = test: Cell growth inhibitory test MV4-11 (WST-1); assay type: cell-based, human; details: Homo sapiens, MV4-11, 72 h, MV4-11 cells, 3 days culture
Experimental: Pharmacological Test Example 2
Cell Growth Inhibitory Test
MV4-11 (ATCC number: CRL-9591) as human leukemia cells was seeded in an amount of 3×10^3 using a DMEM medium containing 10% fetal calf serum (purchased from GIBCO) in a 96-well flat bottom plate.
(§1) A solution of a test compound in dimethyl sulfoxide was added to each well and was cultured in a 5% carbon dioxide incubator for 3 days. Three days after the initiation of the culture, 10 μl of a WST-1 solution in Cell Counting Kit (purchased from Wako Pure Chemical Industries, Ltd.) was added to each well for a color reaction. After proper color development, the absorbance was measured with a microplate reader under conditions of measurement wavelength 450 nm and reference wavelength 650 nm. The growth ratio for each well was determined by presuming the absorbance without the addition of the medicament to be 100% growth ratio and the absorbance of the well without seeding of the cells to be 0% growth ratio. The concentration of the test compound was varied on several levels, the cell growth ratio for each case was determined, and the concentration of the test compound necessary for inhibiting 50% of cell growth ratio (IC50) was calculated.

MOLM13 [2] = test: Cell growth inhibitory activities on cultured human leukemia cells MOLM-13 (WST-1); assay type: cell-based; details: Homo sapiens, MOLM-13, 72 h, 3 days culture
Experimental: Pharmacological Test Example 4
Cell Growth Inhibitory Activities on Cultured Human Leukemia Cells
as §1, with “Human leukemia cells MOLM13 (subdivided from Hayashibara Biochemical Laboratories, Inc.) were seeded in an amount of 3×10^3 using a DMEM medium containing 10% fetal calf serum (purchased from GIBCO) in a 96-well flat bottom plate. A solution” for “A solution”

SMILES | IC50 (MOLM13 [1]) [nM] | IC50 (MV4-11) [nM] | IC50 (MOLM13 [2]) [nM]
COc1cc2nccc(Oc3ccc(NC(=O)NCCC(C)(C)C)cc3OC)c2cc1OC [Compound 5, 1-[4-(6,7-Dimethoxy-quinolin-4-yloxy)-3-methoxy-phenyl]-3-(3,3-dimethyl-butyl)-urea] | 93.1 | 23 | 36
COc1cc2nccc(Oc3ccc(NC(=O)NCCC4CCCCC4)cc3F)c2cc1OC [Compound 16, 1-(2-Cyclohexyl-ethyl)-3-[4-(6,7-dimethoxy-quinolin-4-yloxy)-3-fluoro-phenyl]-urea] | 18.8 | 4 | 7
COc1cc2nccc(Oc3ccc(NC(=O)NCCC4CCCCC4)cc3Cl)c2cc1OC [Compound 17, 1-[3-Chloro-4-(6,7-dimethoxy-quinolin-4-yloxy)-phenyl]-3-(2-cyclohexyl-ethyl)-urea] | 20.5 | 17 | 27
COc1cc2nccc(Oc3ccc(NC(=O)NCCC4CCCC4)cc3F)c2cc1OC [Compound 18, 1-(2-Cyclopentyl-ethyl)-3-[4-(6,7-dimethoxy-quinolin-4-yloxy)-3-fluoro-phenyl]-urea] | 40.3 | 1 | 2
COc1cc2nccc(Oc3ccc(NC(=O)NC4CCCCC4)cc3)c2cc1OC [Compound 26, 1-Cyclohexyl-3-[4-(6,7-dimethoxy-quinolin-4-yloxy)-phenyl]-urea] | 31.3 | 12 | 18
COc1cc2nccc(Oc3ccc(NC(=O)NCC4CCCCC4)cc3)c2cc1OC [Compound 30, 1-Cyclohexylmethyl-3-[4-(6,7-dimethoxy-quinolin-4-yloxy)-phenyl]-urea] |  | 4 | 8
COc1cc2nccc(Oc3ccc(NC(=O)NCCC4CCCCC4)cc3)c2cc1OC [Compound 31, 1-(2-Cyclohexyl-ethyl)-3-[4-(6,7-dimethoxy-quinolin-4-yloxy)-phenyl]-urea] |  | 2 | 2
COc1cc2nccc(Oc3ccc(NC(=O)NCC(C)(C)C)cc3)c2cc1OC [Compound 32, 1-[4-(6,7-Dimethoxy-quinolin-4-yloxy)-phenyl]-3-(2,2-dimethyl-propyl)-urea] |  | 201 | 314
COc1cc2nccc(Oc3ccc(NC(=O)NCCCC4CCCCC4)cc3)c2cc1OC [Compound 33, 1-(3-Cyclohexyl-propyl)-3-[4-(6,7-dimethoxy-quinolin-4-yloxy)-phenyl]-urea] |  | 8 | 4
COc1cc2nccc(Oc3ccc(NC(=O)NCCCC(C)C)cc3)c2cc1OC [Compound 34, 1-[4-(6,7-Dimethoxy-quinolin-4-yloxy)-phenyl]-3-(4-methyl-pentyl)-urea] |  | < 1 | 2
COc1cc2nccc(Oc3ccc(NC(=O)NCCCC(C)(C)C)cc3)c2cc1OC [Compound 35, 1-[4-(6,7-Dimethoxy-quinolin-4-yloxy)-phenyl]-3-(4,4-dimethyl-pentyl)-urea] |  | < 1 | 3

The next lines start with the values.

IC50 (MOLM13 [1]) [nM] | IC50 (MV4-11) [nM] | IC50 (MOLM13 [2]) [nM] | SMILES
 | < 1 | 2 | COc1cc2ncnc(Oc3ccc(NC(=O)NCCC(C)(C)C)cc3)c2cc1OC [Compound 36, 1-[4-(6,7-Dimethoxy-quinazolin-4-yloxy)-phenyl]-3-(3,3-dimethyl-butyl)-urea]
 | 47 | 38 | COc1cc2nccc(Oc3ccc(NC(=O)NCCC(C)(C)C)c([N+](=O)[O-])c3)c2cc1OC [Compound 37, 1-[2-Nitro-4-(6,7-dimethoxy-quinolin-4-yloxy)-phenyl]-3-(3,3-dimethyl-butyl)-urea]
 | < 1 | 3 | COc1cc2nccc(Oc3ccc(NC(=O)NCCC(C)(C)CO)cc3)c2cc1OC [Compound 39, 1-[4-(6,7-Dimethoxy-quinolin-4-yloxy)-phenyl]-3-(4-hydroxy-3,3-dimethyl-butyl)-urea]
 | 235 | 273 | COc1cc2c(Oc3ccc(NC(=O)NCCC(C)(C)C)c(Cl)c3)ccnc2cc1OCCN1CCCCC1 [Compound 42, 1-{2-Chloro-4-[6-methoxy-7-(2-piperidin-1-yl-ethoxy)-quinolin-4-yloxy]-phenyl}-3-(3,3-dimethyl-butyl)-urea]
255 | 118 | 140 | COc1cc2c(Oc3ccc(NC(=O)NCCC(C)(C)C)c(Cl)c3)ccnc2cc1OCCCN1CCCC1 [Compound 45, 1-{2-Chloro-4-[6-methoxy-7-(3-pyrrolidin-1-yl-propoxy)-quinolin-4-yloxy]-phenyl}-3-(3,3-dimethyl-butyl)-urea]
 | 207 | 224 | COc1cc2c(Oc3ccc(NC(=O)NCCC(C)(C)C)c(Cl)c3)ccnc2cc1OCCC1CCNCC1 [Compound 49, 1-{2-Chloro-4-[6-methoxy-7-(2-piperidin-4-yl-ethoxy)-quinolin-4-yloxy]-phenyl}-3-(3,3-dimethyl-butyl)-urea]
 | 224 | 243 | COc1cc2c(Oc3ccc(NC(=O)NCCC(C)(C)C)c(Cl)c3)ccnc2cc1OCCC1CCCCN1 (centres unmarked) [Compound 50, 1-{2-Chloro-4-[6-methoxy-7-(2-piperidin-2-yl-ethoxy)-quinolin-4-yloxy]-phenyl}-3-(3,3-dimethyl-butyl)-urea]
 | 211 | 216 | COc1cc2c(Oc3ccc(NC(=O)NCCC(C)(C)C)c(Cl)c3)ccnc2cc1OCCN1CCC(C)CC1 [Compound 51, 1-(2-Chloro-4-{6-methoxy-7-[2-(4-methyl-piperidin-1-yl)-ethoxy]-quinolin-4-yloxy}-phenyl)-3-(3,3-dimethyl-butyl)-urea]
 | 184 | 188 | COc1cc2c(Oc3ccc(NC(=O)NCCC(C)(C)C)c(Cl)c3)ccnc2cc1OCCCN1CCC(C)CC1 [Compound 52, 1-(2-Chloro-4-{6-methoxy-7-[3-(4-methyl-piperidin-1-yl)-propoxy]-quinolin-4-yloxy}-phenyl)-3-(3,3-dimethyl-butyl)-urea]
 | 2 | 4 | COc1cc2c(Oc3ccc(NC(=O)NCCC4CCCC4)cc3F)ccnc2cc1OCCN1CCCCC1 [Compound 59, 1-(2-Cyclopentyl-ethyl)-3-{3-fluoro-4-[6-methoxy-7-(2-piperidin-1-yl-ethoxy)-quinolin-4-yloxy]-phenyl}-urea]
 | 57 | 138 | COc1cc2c(Oc3ccc(NC(=O)NCCC(C)(C)C)c(F)c3)ccnc2cc1OCCN1C(C)(C)CCCC1(C)C [Compound 61, 1-(3,3-Dimethyl-butyl)-3-(2-fluoro-4-{6-methoxy-7-[2-(2,2,6,6-tetramethyl-piperidin-1-yl)-ethoxy]-quinolin-4-yloxy}-phenyl)-urea]
 | < 1 | < 1 | COc1cc2c(Oc3ccc(NC(=O)NCCC(C)(C)C)cc3)ccnc2cc1OCCN1CCOCC1 [Compound 66, 1-(3,3-Dimethyl-butyl)-3-{4-[6-methoxy-7-(2-morpholin-4-yl-ethoxy)-quinolin-4-yloxy]-phenyl}-urea]
 | 15 | 27 | COc1cc2c(Oc3ccc(NC(=O)NCCC4CCCCCC4)c(F)c3)ccnc2cc1OCCN1CC(C)OC(C)C1 (centres unmarked) [Compound 71, 1-(2-Cycloheptyl-ethyl)-3-(4-{7-[2-(2,6-dimethyl-morpholin-4-yl)-ethoxy]-6-methoxy-quinolin-4-yloxy}-2-fluoro-phenyl)-urea]
 | 255 | 244 | COc1cc2c(Oc3ccc(NC(=O)NCCC(C)(C)C)c(Cl)c3)ccnc2cc1OCCN1CCCCCC1 [Compound 74, 1-{4-[7-(2-Azepan-1-yl-ethoxy)-6-methoxy-quinolin-4-yloxy]-2-chloro-phenyl}-3-(3,3-dimethyl-butyl)-urea]
